Laboratory results: patent EP0795549A1, “Bis-aryloxy(amino)-triazinyl-oxy(amino)aryl derivatives, their preparation and their use as antiviral agents” (American Cyanamid Company, priority 1996, dated 1997)
Where a name gives a salt, the structure may show the parent alone. Read-outs that look alike come from different tables or passages of the source.

How the values were obtained:
RSV (A2) = test: viral yield reduction (growth inhibition) assay, RSV; assay type: cell-based, Respiratory Syncitial Virus; conditions: for Antiviral IC50 µg/ml RSV/ Vero: format not given; for IC50: human respiratory syncytial virus
Protocol: (§1) The compounds were tested for biological activity using viral yield reduction assays. Host cells (indicated as HF for human foreskin fibroblasts and as vero, the commonly used African green monkey cell line, in Tables 1 and 1a) were plated at 4 x 10^4 cells/well in cell growth medium with 2% fetal bovine serum or 2% calf serum in 96-well plates (0.1 ml/well) and incubated overnight. The compounds were added to individual wells to give final concentrations ranging from 50 to 0.1 µg/ml in two-fold concentration steps. After 1 hour, virus was added, and the incubation was continued for 4 days with RSV or CMV and for 2 days with HSV. At the end of the experiment, the amount of virus growth was quantitated and the yield reduction at various concentrations of compound was calculated. This allows estimation of the concentration of compound giving 50% reduction in virus growth (IC50).

CMV (Ad169) [1] = test: viral yield reduction (growth inhibition) assay, CMV; assay type: cell-based, Cytomegalovirus; conditions: for Antiviral IC50 µg/ml CMV /HF: Table 1a
Protocol: as §1

[2] = test system: human foreskin fibroblasts (HF); test: effect on cells: appearance of fixed, crystal violet-stained monolayer (HF); assay type: cell-based; design: key: N, no effect on the appearance of the alcohol-fixed and crystal violet-stained cell monolayer at the indicated compound concentration.; L, lightening of the intensity of staining (compared to controls) of the alcohol-fixed and crystal violet-stained cell monolayer at the indicated compound concentration but not at half that concentration
HSV1 (Patton) = test: viral yield reduction (growth inhibition) assay, HSV; assay type: cell-based, Herpes Simplex Virus; conditions: for Antiviral IC50 µg/ml HSV Vero: Table 1a, HSV1 (Patton), format not given
Protocol: as §1

vero cells = test: effect on cells: appearance of fixed, crystal violet-stained monolayer (vero); assay type: cell-based, African green monkey; design: key: N, no effect on the appearance of the alcohol-fixed and crystal violet-stained cell monolayer at the indicated compound concentration.; L, lightening of the intensity of staining (compared to controls) of the alcohol-fixed and crystal violet-stained cell monolayer at the indicated compound concentration but not at half that concentration; conditions: at 75 µg/ml
CMV (Ad169) [3] = test: viral plaque reduction assay, CMV; assay type: cell-based, Cytomegalovirus; conditions: Human betaherpesvirus 5; CMV (Ad169), HF host cells; read-out: IC50µG/mL IN PLAQUE ASSAY CMV/ HF
[4] = Table 1a, HF, yield reduction or plaque format not specified
[5] = HF host cells, read-out: IC50 µG/mL IN GROWTH […]/ HF
[6] = vero host cells, read-out: IC50 µG/mL IN GROWTH […]/ VERO
[7] = Human betaherpesvirus 5, HF host cells, read-out: IC50 µG/mL IN GROWTH […]/ HF

Molecule: 1,2',1'',1'''-[(2,2'-disulfo[1,1'-biphenyl]-4,4'-diyl)-bis[imino-1,3,5-triazine-6,2,4-triylbis(imino-3,1-phenylenesulfonyl)]tetrakis[3,5-piperidinedicarboxylic acid [Example 54]
- Antiviral IC50 µg/ml RSV/ HF (RSV (A2); [4]): 35 µg/mL
- Antiviral IC50 µg/ml RSV/ Vero (RSV (A2); Table 1a): >50 µg/mL
- Antiviral IC50 µg/ml CMV /HF (CMV (Ad169) [1]; HF, format not given): >50 µg/mL
- Effect on cells @ µg/ml indicated HF ([2]; at 75 µg/ml): N@75

Molecule: 4,4'-Bis-(4,6-bis-{3-[bis-(2-methylcarbamoyl-ethyl)-sulfamoyl]-phenylamino}-[1,3,5]triazin-2-ylamino)-biphenyl-2,2'-dicarboxylic acid, disodium salt [Example 35]
- Antiviral IC50 µg/ml RSV/ HF (RSV (A2); [4]): 6 µg/mL
- Antiviral IC50 µg/ml CMV /HF (CMV (Ad169) [1]; HF, format not given): >50 µg/mL
- Antiviral IC50 µg/ml HSV Vero (HSV1 (Patton)): >50 µg/mL
- Effect on cells @ µg/ml indicated Vero (vero cells): N@75

Molecule: 4,4'-Bis-(4,6-bis{3-[bis-(2-carbamoyl-ethyl)-sulfamoyl]-phenylamino}- 1,3,5-triazin-2-ylamino]-biphenyl-2,2'-dicarboxylic acid, disodium salt [Example 30]
- Antiviral IC50 µg/ml RSV/ HF (RSV (A2); [4]): 0.35 µg/mL
- Antiviral IC50 µg/ml CMV /HF (CMV (Ad169) [1]; HF, format not given): 40 µg/mL
- Antiviral IC50 µg/ml HSV Vero (HSV1 (Patton)): >50 µg/mL
- Effect on cells @ µg/ml indicated HF ([2]; at 75 µg/ml): N@75

Molecule: NS(=O)(=O)c1cccc(Nc2nc(Nc3cccc(S(N)(=O)=O)c3)nc(Nc3ccc(/C=C/c4ccc(Nc5nc(Nc6cccc(S(N)(=O)=O)c6)nc(Nc6cccc(S(N)(=O)=O)c6)n5)cc4S(=O)(=O)O)c(S(=O)(=O)O)c3)n2)c1 [Example 15, 4,4'-Bis[4,6-di[3-aminophenylsulphonylamido]-1,3,5-triazin-2-ylamino]-stilbene-2,2'-disulfonic acid, disodium salt]
- IC50 (RSV (A2); [5]): 7 µg/mL
- IC50 (RSV (A2); [6]): > 8.3 µg/mL
- IC50 (CMV (Ad169) [1]; [7]): 2 µg/mL
- IC50 (CMV (Ad169) [3]): 1 µg/mL

Molecule: NS(=O)(=O)c1cccc(Nc2nc(Nc3cccc(S(N)(=O)=O)c3)nc(Nc3ccc(-c4ccc(Nc5nc(Nc6cccc(S(N)(=O)=O)c6)nc(Nc6cccc(S(N)(=O)=O)c6)n5)cc4S(=O)(=O)O)c(S(=O)(=O)O)c3)n2)c1 [Example 16, 4,4'-Bis[4,6-di[3-aminophenylsylphonylimido]-1,3,5-triazin-2-ylamino]-biphenyl-2,2'-disulfonic acid, disodium salt]
- IC50 (RSV (A2); [5]): 5 µg/mL
- IC50 (RSV (A2); [6]): ~8.3 µg/mL
- IC50 (CMV (Ad169) [1]; [7]): 3 µg/mL
- IC50 (CMV (Ad169) [3]): 3 µg/mL

Molecule: O=C([O-])c1cc(Nc2nc(Nc3cccc(S(=O)(=O)N(CCO)CCO)c3)nc(Nc3cccc(S(=O)(=O)N(CCO)CCO)c3)n2)ccc1-c1ccc(Nc2nc(Nc3cccc(S(=O)(=O)N(CCO)CCO)c3)nc(Nc3cccc(S(=O)(=O)N(CCO)CCO)c3)n2)cc1C(=O)[O-].[Na+].[Na+] [Example 57, 4,4'-Bis-(4,6-bis-{3-[bis-(2-hydroxyethyl)-sulfamoyl]-phenylamino}-[1,3,5]-triazin-2-ylamino)biphenyl-2,2'dicarboxylic acid, disodium salt]
- IC50 (RSV (A2); Table 1a, HF, yield reduction or plaque format not specified, read-out: Antiviral IC50 µg/ml RSV/ HF): 1.5 µg/mL
- IC50 (CMV (Ad169) [1]; Human betaherpesvirus 5, Table 1a, HF, format not given, read-out: Antiviral IC50 µg/ml CMV /HF): 4 µg/mL
- IC50 (HSV1 (Patton); Human alphaherpesvirus 1, Vero, read-out: Antiviral IC50 µg/ml HSV Vero): 30 µg/mL
- Effect on cells @ µg/ml indicated Vero (vero cells): N@75

Molecule: (E)-2,2'-(1,2-Ethenediyl)bis[5-[[4,6-bis[[3-[[3,5-bis(aminocarbonyl)-1-piperedinyl]sulfonyl]phenyl]amino]-1,3,5-triazin-2-yl]benzenesulfonic acid], disodium salt [Example 52]
- Antiviral IC50 µg/ml RSV/ HF (RSV (A2); [4]): 1.5 µg/mL
- Antiviral IC50 µg/ml RSV/ Vero (RSV (A2); Table 1a): 1.5 µg/mL
- Effect on cells @ µg/ml indicated HF ([2]; at 37 µg/ml): L@37
